Target: T1, Gonadotropin-releasing hormone receptor (Homo sapiens, UniProt P30968)
T1 sequence (P30968 whole entry): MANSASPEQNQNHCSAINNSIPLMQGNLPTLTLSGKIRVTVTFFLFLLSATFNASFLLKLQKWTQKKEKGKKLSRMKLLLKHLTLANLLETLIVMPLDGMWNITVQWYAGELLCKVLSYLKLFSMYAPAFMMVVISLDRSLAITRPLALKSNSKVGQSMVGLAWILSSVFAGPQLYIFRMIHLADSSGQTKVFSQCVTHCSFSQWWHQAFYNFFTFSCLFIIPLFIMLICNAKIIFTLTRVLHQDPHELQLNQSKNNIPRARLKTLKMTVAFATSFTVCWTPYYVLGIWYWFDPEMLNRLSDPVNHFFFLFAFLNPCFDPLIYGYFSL
Assay: Binding affinity to human gonadotropin-releasing hormone (hGnRH) receptor expressed in HEK293 cells using des-Gly10[125I-Tyr,5DLeu,6NMeLeu,7Pro9-NEt]GnRH radioligand
Format: cell-based

First: CCCC(=O)Nc1ccc(-c2cc3n(Cc4ccccc4F)cc(C(=O)OC(CC)CC)c(=O)n3c2CN(C)Cc2ccccc2)cc1
Second: CCCC(=O)Nc1ccc(-c2cc3n(Cc4ccccc4F)cc(C(=O)OC(CC)CC)c(=O)n3c2CN(C)CCc2ccccc2)cc1
The Ki of the first is 1.8-fold higher: 0.0038 µM for the first, 0.0021 µM for the second.

`CCOC(=O)c1cn(Cc2ccccc2F)c2cc(-c3ccc(NC(=O)C(C)C)cc3)c(CN(C)Cc3ccccc3)n2c1=O` and `CCOC(=O)c1cn(Cc2ccccc2F)c2cc(-c3ccc(NC(C)=O)cc3)c(CN(C)Cc3ccccc3)n2c1=O` are within 1.5-fold of each other in Ki: 0.044 µM for the first, 0.042 µM for the second.

Compared with `CCCC(=O)Nc1ccc(-c2cc3n(Cc4ccccc4F)cc(C(=O)OC(CC)CC)c(=O)n3c2CN(C)CCN(CC)CC)cc1`, `CCCC(=O)Nc1ccc(-c2cc3n(Cc4ccccc4F)cc(C(=O)OC(CC)CC)c(=O)n3c2CN(C)C)cc1` is 22-fold higher in Ki: 0.0058 µM for the first, 0.13 µM for the second.

First: CCCC(=O)Nc1ccc(-c2cc3n(Cc4ccccc4F)cc(C(=O)NC4CCCCC4)c(=O)n3c2CN(C)CCc2ccccn2)cc1
Second: CCCC(=O)Nc1ccc(-c2cc3n(Cc4ccccc4F)cc(C(=O)NC4CCCC4)c(=O)n3c2CN(C)CCc2ccccn2)cc1
The Ki of the first is 3.5-fold higher: 0.032 µM for the first, 0.0092 µM for the second.

Compared with `CCOC(=O)c1cn(Cc2ccccc2F)c2cc(-c3ccc(OC)cc3)c(CN(C)Cc3ccccc3)n2c1=O`, `CCOC(=O)c1cn(Cc2ccccc2F)c2cc(-c3ccc(N)cc3)c(CN(C)Cc3ccccc3)n2c1=O` is 2.1-fold lower in Ki: 0.4 µM for the first, 0.19 µM for the second.

Going from `CN(CCc1ccccn1)Cc1c(-c2ccc([N+](=O)[O-])cc2)cc2n(Cc3ccccc3F)cc(-c3nc(C(C)(C)C)co3)c(=O)n12` to `CN(CCc1ccccn1)Cc1c(-c2ccc([N+](=O)[O-])cc2)cc2n(Cc3ccccc3F)cc(C3=NC(C)(C)CO3)c(=O)n12`, the Ki rises from 0.064 µM to 0.27 µM (4.2-fold).

`CCCC(=O)Nc1ccc(-c2cc3n(Cc4ccccc4F)cc(C(=O)OC(CC)CC)c(=O)n3c2CN(C)CCc2ccccn2)cc1` and `CCC(CC)OC(=O)c1cn(Cc2ccccc2F)c2cc(-c3ccc(NC(C)=O)cc3)c(CN(C)CCc3ccccn3)n2c1=O` are within 1.5-fold of each other in Ki: 0.0027 µM for the first, 0.0028 µM for the second.

Going from `CCC(CC)OC(=O)c1cn(Cc2ccccc2F)c2cc(-c3ccc(OC)cc3)c(CN(C)Cc3ccccc3)n2c1=O` to `CCC(CC)OC(=O)c1cn(Cc2ccccc2F)c2cc(-c3ccc(N)cc3)c(CN(C)Cc3ccccc3)n2c1=O`, the Ki rises from 0.062 µM to 0.1 µM (1.6-fold). The first binds more tightly here.

Compared with `CCCC(=O)Nc1ccc(-c2cc3n(Cc4ccccc4F)cc(C(=O)NCCOC)c(=O)n3c2CN(C)CCc2ccccn2)cc1`, `CCCCNC(=O)c1cn(Cc2ccccc2F)c2cc(-c3ccc(NC(=O)CCC)cc3)c(CN(C)CCc3ccccn3)n2c1=O` is 63-fold lower in Ki: 0.63 µM for the first, 0.01 µM for the second. The second binds more tightly here.

Going from `CCC(CC)OC(=O)c1cn(Cc2ccccc2F)c2cc(-c3ccc(NC(C)=O)cc3)c(CN(C)Cc3ccccc3)n2c1=O` to `CCCCNC(=O)c1cn(Cc2ccccc2F)c2cc(-c3ccc(NC(=O)CCC)cc3)c(CN(C)Cc3ccccc3)n2c1=O`, the Ki rises from 0.004 µM to 0.154 µM (38-fold).

Going from `CCOC(=O)c1cn(Cc2ccccc2F)c2cc(-c3ccc([N+](=O)[O-])cc3)c(CN(C)Cc3ccccc3)n2c1=O` to `CCOC(=O)c1cn(Cc2ccccc2F)c2cc(-c3ccc(OC)cc3)c(CN(C)CCc3ccccn3)n2c1=O`, the Ki falls from 0.45 µM to 0.055 µM (8.2-fold).

Compared with `CCCCNC(=O)c1cn(Cc2ccccc2F)c2cc(-c3ccc(NC(=O)CCC)cc3)c(CN(C)CCN(CC)CC)n2c1=O`, `CCCCCCNC(=O)c1cn(Cc2ccccc2F)c2cc(-c3ccc(NC(=O)CCC)cc3)c(CN(C)CCc3ccccn3)n2c1=O` is 130-fold lower in Ki: 0.44 µM for the first, 0.0033 µM for the second. The second binds more tightly here.

Compared with `CCOC(=O)c1cn(Cc2ccccc2F)c2cc(-c3ccc(NC(=O)C(C)C)cc3)c(CN(C)CCc3ccccn3)n2c1=O`, `CCCC(=O)Nc1ccc(-c2cc3n(Cc4ccccc4F)cc(C(=O)OCC)c(=O)n3c2CN(C)CCc2ccccn2)cc1` is 12-fold lower in Ki: 0.014 µM for the first, 0.0012 µM for the second.

First: CCCC(=O)Nc1ccc(-c2cc3n(Cc4ccccc4F)cc(C(=O)NCCCc4ccccc4)c(=O)n3c2CN(C)Cc2ccccc2)cc1
Second: CCCC(=O)Nc1ccc(-c2cc3n(Cc4ccccc4F)cc(C(=O)NCCCc4ccccc4)c(=O)n3c2CN(C)CCc2ccccn2)cc1
The Ki of the first is 15-fold higher: 0.017 µM for the first, 0.0011 µM for the second.

Compared with `CCC(CC)OC(=O)c1cn(Cc2ccccc2F)c2cc(-c3ccc(OC)cc3)c(CN(C)CCc3ccccn3)n2c1=O`, `CCCC(=O)Nc1ccc(-c2cc3n(Cc4ccccc4F)cc(C(=O)NC(CC)CC)c(=O)n3c2CN(C)CCc2ccccn2)cc1` is 1.5-fold higher in Ki: 0.014 µM for the first, 0.021 µM for the second. The first binds more tightly here.

From ChEMBL document CHEMBL1135039, “A novel synthesis of 2-arylpyrrolo[1,2-a]pyrimid-7-ones and their structure-activity relationships as potent GnRH receptor antagonists” (Bioorg Med Chem Lett, 2002)
